From US20220110889A1, “R-KETAMINE AND DERIVATIVE THEREOF AS PROPHYLACTIC OR THERAPEUTIC AGENT FOR NEURODEV[…]” (National University Corporation Chiba University, priority 2018, published 2022)
“Also recorded” adds a separate entry of the source.

How the values were obtained:
[1] = test system: mice treated with PCP serving as animal models of schizophrenia; assay: Novel object recognition test (NORT) in mice repeatedly administered with PCP (animal model of schizophrenia); type: in vivo; details: for cognitive function in NORT (ratio of time to find the novel object relative to time to find the two objects): male ICR mice, PCP 10 mg/kg s.c. for ten days, test drug 10 mg/kg intraperitoneally on days 15, 18, 22, 25, vs PCP+physiological saline
Method: The creation of model animals of a cognitive impairment of schizophrenia and drug administration were specifically carried out as described below (FIG. 1). For the mice, male ICR mice (8 weeks old, Japan SLC Inc., Hamamatsu, Japan) were purchased. The mice were allowed to freely ingest water and feed. On the first day of testing, physiological saline (10 mL/kg bodyweight) or PCP (10 mg/kg bodyweight) was subcutaneously administered once a day for ten days (from the first day of testing to the fifth day of testing and from the eighth day of testing to the twelfth day of testing: no administration on the sixth and seventh days of testing). On the fifteenth day of testing, the eighteenth day of testing, the twenty-second day of testing, and the twenty-fifth day of testing, R-ketamine (10 mg/kg bodyweight) or a medium (10 mL/kg of physiological saline) was intraperitoneally administered. […] The novel object recognition test (NORT: novel object recognition test) is a system used to evaluate cognitive functions. The NORT was carried out according to a previous report (Hashimoto et al. Eur. J. Pharmacol. 2005; 519 (1-2): 114-117). From the twenty-sixth day to the twenty-eighth day of testing, acclimation to a NORT apparatus (50.8×50.8×25.4 cm) was performed for 10 minutes per day. On the twenty-ninth day of testing, two objects of different shapes and colors were placed 35.5 cm apart in the NORT apparatus, and an amount of time to find each object was measured. A training session (10 minutes) was carried out, and on the following day, the thirtieth day of testing, a test session (5 minutes) was carried out (FIG. 1). In the test session on the following day, one object was replaced with another, new object (novel object). An amount of time to find the two objects was measured, and in the test session on the second day, a ratio of an amount of time to find the novel object relative to the amount of time to find the two objects was calculated. On the day following the end of behavior testing, a brain region (frontal cortex, hippocampus) of the mice was extracted, and the brain tissue was stored in a freezer. Brain-derived neurotrophic factor (BDNF: brain-derived neurotrophic factor); TrkB, which is a BDNF receptor; and phosphorylated TrkB in the brain tissue were quantified by western blotting (FIG. 3).
The effect of S-ketamine was examined according to the method above. On the first day of testing, physiological saline (10 mL/kg bodyweight) or PCP (10 mg/kg bodyweight) was subcutaneously administered once a day for ten days (from the first day of testing to the fifth day of testing and from the eighth day of testing to the twelfth day of testing: no administration on the sixth and seventh days of testing). […]

BDNF-TrkB system = assay: Western blotting of BDNF, TrkB and phosphorylated TrkB in frontal cortex and hippocampus of PCP-treated mice; type: in vivo; details: R-ketamine 10 mg/kg i.p., brain extracted after behavior testing
Method: The creation of model animals of a cognitive impairment of schizophrenia and drug administration were specifically carried out as described below (FIG. 1). For the mice, male ICR mice (8 weeks old, Japan SLC Inc., Hamamatsu, Japan) were purchased. The mice were allowed to freely ingest water and feed. On the first day of testing, physiological saline (10 mL/kg bodyweight) or PCP (10 mg/kg bodyweight) was subcutaneously administered once a day for ten days (from the first day of testing to the fifth day of testing and from the eighth day of testing to the twelfth day of testing: no administration on the sixth and seventh days of testing). On the fifteenth day of testing, the eighteenth day of testing, the twenty-second day of testing, and the twenty-fifth day of testing, R-ketamine (10 mg/kg bodyweight) or a medium (10 mL/kg of physiological saline) was intraperitoneally administered. […] On the day following the end of behavior testing, a brain region (frontal cortex, hippocampus) of the mice was extracted, and the brain tissue was stored in a freezer. Brain-derived neurotrophic factor (BDNF: brain-derived neurotrophic factor); TrkB, which is a BDNF receptor; and phosphorylated TrkB in the brain tissue were quantified by western blotting (FIG. 3). […]

[2] = test system: baby mice (male) born from pregnant mice administered with Poly (I:C); assay: Novel object recognition test in offspring of pregnant mice administered with Poly (I:C) (maternal immune activation model); type: in vivo; details: male offspring of Poly (I:C) 5 mg/kg dams; R-ketamine 10 mg/kg i.p. twice a week, four weeks (weeks 4 to 8 after birth); NORT at 10 weeks old or thereafter
Method: The creation of model animals of a neurodevelopmental disorder such as schizophrenia or autism spectrum disorder (models of maternal immune activation) and drug administration were specifically carried out as described below (FIG. 5). For the mice, pregnant ddY mice (8 to 10 weeks old, Japan SLC Inc., Hamamatsu, Japan) were purchased. The mice were allowed to freely ingest water and feed. Physiological saline (5 mL/kg bodyweight) or Poly (I:C) (Sigma-Aldrich: 5 mg/kg bodyweight) was intraperitoneally administered for six days, from the twelfth day of pregnancy to the seventeenth day of pregnancy, according to previous reports (Han M, et al. Sci Rep 2016; 6:36087. Matsuura A, et al. Sci Rep 2018; 8: 2158. Ma M, et al. Proc Natl Acad Sci USA 2019; 116: 7083-7088). After birth, the mice were raised normally, and at 3 weeks old, only the male mice were weaned and raised. R-ketamine (10 mg/kg bodyweight) or a medium (10 mL/kg of physiological saline) was intraperitoneally administered twice a week for four weeks, from the fourth week after birth to the eighth week after birth. […] From 8 weeks old, these were raised normally. The above NORT was carried out at 10 weeks old or thereafter.
Statistical analysis was carried out by performing a one-way analysis of variance (one-way ANOVA) and subsequently performing Fisher's LSD (Fisher's LSD). […]

[3] = animal testing, non-patent literature 12 to 14; cited from earlier work
NMDA receptors = details: non-patent literature 11; cited from earlier work

SMILES: O=C(Nc1ccccc1C(=O)NC1CCCCNC1=O)c1cc2ccccc2s1 (stereo not drawn) [ANA-12, reference compound]
- effect of ANA-12 pretreatment on the therapeutic effect of R-ketamine in NORT ([1]; PCP-treated mice, ANA-12 0.5 mg/kg i.p. 30 minutes before R-ketamine 10 mg/kg i.p.): suppressed the therapeutic effect of R-ketamine

SMILES: CN[C@@]1(c2ccccc2Cl)CCCCC1=O [R-ketamine]
- cognitive function in NORT, TrkB role study ([1]; PCP-treated mice, solvent 30 minutes before R-ketamine 10 mg/kg i.p. on days 15, 18, 22, 25): significantly improved the reduced cognitive function due to PCP administration
- cognitive function in NORT (ratio of time to find the novel object relative to time to find the two objects) [1]: significantly improved the reduced cognitive function due to PCP administration; also recorded: exhibits a therapeutic effect
- BDNF protein expression in the frontal cortex and the hippocampus (BDNF-TrkB system): significantly improved
- ratio p-TrkB/TrkB in the frontal cortex and the hippocampus (BDNF-TrkB system): significantly improved
- cognitive impairment at maturity in NORT [2]: suppressed a cognitive impairment at maturity
- side effects (such as drug dependency and an action of inducing a mental illness) compared to S-ketamine [3]: fewer side effects

SMILES: CN[C@]1(c2ccccc2Cl)CCCCC1=O [S-ketamine, reference compound]
- cognitive function in NORT (ratio of time to find the novel object relative to time to find the two objects) [1]: did not improve the reduced cognitive function due to PCP administration; also recorded: exhibited no therapeutic effect
- affinity toward NMDA receptors relative to R-ketamine (NMDA receptors): stronger affinity toward NMDA receptors; also recorded: about four times higher than R-ketamine
